Patent US20250154180A1, “CRK-LIKE (CRKL) ADAPTOR PROTEIN INHIBITORS AND METHODS OF MAKING AND USING THE SAME” (Rutgers, The State University of New Jersey, priority 2022, published 2025)
Entries after “also recorded” stand apart in the source; their conditions may differ. Where a name gives a salt, the structure may show the parent alone. Read-outs that look alike come from different tables or passages of the source. One block for each molecule: values may come before it.

Legend:
[1] = tested on: MDA-MB-231 cells; experiment: XTT cell viability, MDA-MB-231; type: cell-based; settings: 24 and 48 hours
Description: (§1) FIGS. 8A-8C show results using MDA-MB-231 cells (FIG. 8A) or BXPC3 cells (FIG. 8B), wherein the cells were treated with 5 μM of NC5, Compound III (referred to as “NC5-140-1” in FIGS. 8A-8C), and Compound I (referred to as “NC5-140-2” in FIGS. 8A-8C) for 24-48 hours, wherein the XTT assay was used to determine cell viability. The symbol indicates the significance of NC5 vs. Compounds I and/or III; *p<0.05. Data represent mean±SEM.
(§2) Compound embodiments, compound III and compound I, were also made and evaluated. TNBC cells and PDAC cells were treated with a serial dose of original NC5 and modified NC5 derivatives for 24 and 48 hours. The cell viability will be measured by XTT assay. […] Compound III is referred to as “NC5-140-1” and Compound I is referred to as “NC5-140-2” in FIGS. 8A-8C.

[2] = tested on: BXPC3 cells; experiment: XTT cell viability, BXPC3; type: cell-based; settings: 24 and 48 hours
Description: as §1, §2

[3] = tested on: Sk-Hep1 cells; experiment: Growth inhibition of Sk-Hep1 cells (cell culture images); type: cell-based; settings: 5 μM, 24 hours
[4] = tested on: Sk-Hep1 tumor; experiment: HCC Sk-Hep1 xenograft model; type: in vivo, NSG mice; settings: four-group study, 5.0 μg/g oral gavage
Excerpt: To further test whether the tumor growth inhibition effect of NC5 applied to other solid tumors, the HCC-Sk-Hep1cell line and PDAC-BXPC3 cell line xenograft models were used. Subcutaneous injection of 1.5×10^6 SK-Hep1 or BXPC3 cells in NSG mice, Six-ten days after tumor cell injection, the palpable tumor in NSG mice was confirmed.
To test the effects of the disclosed compounds on the xenograft mouse models, the HCC-Sk-Hep1 cell line xenograft model in NSG mice and 4T1-Luc orthotopic syngeneic breast tumor model in Balb/c mice was used. After confirming the palpable tumor in NSG or Balb/c mice. […] Compound III is referred to as “NC5-140-1” and Compound I is referred to as “NC5-140-2” in FIGS. 11A-11C.

[5] = Thermodynamic solubility; type: physicochemical; settings: thermodynamic from solid
Description: In this example, solubility measurement assays were performed using a phosphate buffer (also referred to as “PB”) system and a water system to evaluate thermodynamic solubility. The PB system was at a pH of 7.4 to mimic in vivo environments. For the PB system, the values were determined to be NC5: Thermodynamic Solubility pH=7.4<0.42 μg/mL; Compound III: Thermodynamic Solubility pH=7.4<0.48 μg/mL; and Compound I: Thermodynamic Solubility pH=7.4<0.48 μg/mL. Results for the water assay were as follows: NC5: Thermodynamic Solubility Water<0.42 μg/mL; Compound III: Thermodynamic Solubility Water<0.48 μg/mL; and Compound I: Thermodynamic Solubility Water<0.48 μg/mL.

[6] = tested on: CrkL (phosphorylation at Y207 by Ab1); experiment: AlphaScreen of Ab1 phosphorylation of CrkL at Y207; type: biochemical; settings: compared to DMSO; positive control in the five libraries
[7] = molecular target: CrkL (Homo sapiens, UniProt P46109); type: biochemical
CrkL, sequence (P46109 whole entry, the tested form may be a part): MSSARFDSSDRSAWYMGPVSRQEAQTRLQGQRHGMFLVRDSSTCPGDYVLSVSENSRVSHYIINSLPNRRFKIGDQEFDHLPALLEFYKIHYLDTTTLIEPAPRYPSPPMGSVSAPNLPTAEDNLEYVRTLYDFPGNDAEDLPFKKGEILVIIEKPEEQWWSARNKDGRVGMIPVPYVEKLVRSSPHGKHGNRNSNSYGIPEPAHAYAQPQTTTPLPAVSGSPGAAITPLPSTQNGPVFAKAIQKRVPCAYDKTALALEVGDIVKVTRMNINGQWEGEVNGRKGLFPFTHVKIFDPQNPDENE
Excerpt: Single-molecule Fluorescence Resonance Energy Transfer (smFRET)—Single-molecule Fluorescence Resonance Energy Transfer (smFRET) was applied to monitor conformations of single molecules. CrkL has two cysteines (a relatively rare amino acid), one in its SH2 and another in SH3C domains. CrkL was mixed with a mixture of equal amounts of Alexa555-maleimide and Alexa647-maleimide (Invitrogen, USA) (10× over protein concentration) to randomly label the two cysteines. The labeled protein was purified from an unreacted dye by gel filtration. Molecules with exactly one donor and acceptor are identified in single-molecule data analysis and used for further analysis. […] The FRET change between non-phosphorylated CrkL and phosphorylated CrkL was measured. The dye-labeled protein was used in in vitro kinase assays with different drugs treatments as described above. smFRET measurements were performed with a prism-type total internal refection microscope (TIRF) where FRET efficiency is calculated from measured donor and acceptor intensities (Id and Ia, respectively) by FRET=Ia/(Id+Ia), as described previously. To surface immobilize 6×His tagged CrkL, the protein was added to the biotinylated 6×His antibody (Thermo Scientific Cat #: MA1-80087) bound to streptavidin, which was adsorbed to a quartz slide. A lipid bilayer was used to passivate the quartz surface. Phosphorylation was performed on the immobilized Crk in situ.
In intramolecular smFRET, non-radiative energy transfer occurs when two fluorophores attached to different parts of one molecule move close together. […] A cysteine-maleimide-based chemistry was used to label both CrkL and mutant (non-phosphorylatable) CrkL-Y207F. CrkL has a cysteine (a relatively rare amino acid) in its SH2 (labeled with AlexaFluor555) and SH3C (labeled with AlexaFluor647). […] Western Blot (WB) and immunoprecipitation (IP) was used to verify that labeled proteins retain the same gross functional properties as wild-type CrkL (e.g., are phosphorylatable and capable of binding SH2 and SH3 ligands). Briefly, site-specific labeled CrkL was mixed with Ab1 in the presence of Mg^2+ and ATP. A single AlphaScreen-identified candidate inhibitor was then added per assay.

[8] = tested on: IL-2 production from human PBMCs; experiment: IL-2 ELISA, PBMCs; type: cell-based
Description: IL-2 ELISA—IL-2 in vitro enzyme-linked immunosorbent assay (ELISA) was used to measure human IL-2 productions. This assay was conducted per the user manual from the kit. In brief, human PBMCs were cultured in R10 medium with 0.5 μg/ml PHA. Then, 100 μl of the standard and sample was added to each well and incubated at 4° C. overnight. A prepared biotin antibody (100 μl) was added to each well and incubated for 1 hour at room temperature. Then, 100 μl prepared streptavidin solution was added and incubated for 45 minutes at room temperature. TMB one-step substrate reagent (100 μl) was then added to each well and incubated for 30 minutes at room temperature. Stop solution (50 μl) was then added to each well, and the results were quantified at 450 nm by Infinite M1000 Pro Plate Reader (Tecan, Switzerland) immediately.
Previous studies have shown that phosphorylated CrkL inhibits immune cell functions. It was then evaluated whether a pCrkL inhibitor could restore immune cell functions. To test this, the production of IL-2 from human PBMCs treated with different concentrations of Pomiferin was quantitated. Phytohemagglutinin (PHA) was used to stimulate the secretion of IL-2 as a positive control group. […] Similar results were obtained from the third donor (FIG. 5B, lower panel).

[9] = Mouse toxicity assays (serum ALT, AST, BUN, creatinine); type: in vivo, mice; settings: at the indicated dosages
Description: Three mice were treated in each group. Blood samples were collected from every mouse in pre-treatment and post-treatment (20 days), and serum was obtained for alanine aminotransferase (ALT, SGPT, FIG. 12A), aspartate aminotransferase (AST, SGOT, FIG. 12B), blood urea nitrogen (BUN, FIG. 12C), and creatinine (FIG. 12D) tests to monitor liver and kidney toxicity. The normal Reference Ranges for ALT is 17-77 IU/L; AST is 54-298 IU/L; BUN is 18.5-33.3 mg/dL; Cr is 0-0.40 mg/dL.
Mouse toxicity assays—Blood was collected from the submandibular facial vein following IACUC guidelines (CMP, Houston Methodist Research Institute and Rutgers University) before and 20-day after the drug treatment. The Department of Veterinary Medicine & Surgery, MD Anderson Cancer Center, performed the clinical biochemistry and pharmacokinetics tests. Blood serum chemistry analysis included alanine transaminase (ALT), aspartate transaminase (AST), blood urea nitrogen (BUN), and creatinine level measurements.
Alanine aminotransferase (ALT, SGPT), aspartate aminotransferase (AST, SGOT), blood urea nitrogen (BUN), and creatinine levels were examined to determine liver and kidney toxicity of Pomiferin treatments in vivo. […] Nevertheless, these changes have no physiological significance because ALT, AST and BUN levels in all mice were within normal mouse reference ranges. […]

[10] = tested on: MDA-MB-231 cells; experiment: MTT proliferation assay, MDA-MB-231; type: cell-based
Description: (§3) MTT assay—The MTT assay was used to detect cell proliferation. Briefly, cells were plated in a 96-well plate at a density of 50,000 cells/well in 200 μl of culture medium with candidate drugs to be tested (DMSO as a negative control). The treated cells were incubated for four hours a 37° C. with a 5% CO2 incubator to allow dark crystals to form at the bottom of the wells. After culturing for 48 hours, […] of MTT reagent was added to each well and mixed gently for one minute. After aspirating the culture medium from each well, 100 μl of crystal dissolving solution was added to each well and incubated for 10 minutes at RT. The signal was quantified by measuring the absorbance in each sample at 570 nm using a microplate reader.
(§4) Compound II is referred to as “NC5-SO2F” in FIGS. 7A-7C.
Cell proliferation was first determined by MTT assay as confirmation. […] CrkL is known to mediate the activation of both Raf/ERK and PI3K pathways. So, proteins that relate to these two pathways were utilized.

[11] = tested on: PDAC cells BXPC3; experiment: MTT assay, BXPC3; type: cell-based; settings: 5 uM
Description: as §3, §4

[12] = tested on: BXPC3 cells; experiment: Propidium iodide staining, BXPC3; type: cell-based; settings: various concentrations
Excerpt: as §4

SMILES: CC(C)=CCc1c2c(c(O)c3c(=O)c(-c4ccc5c(c4)OS(=O)(=O)O5)coc13)C=CC(C)(C)O2 [Compound I]
toxic effect compared with NC5 (XTT viability) [1]: comparable toxic effect as NC5 | toxic effect compared with NC5 (XTT viability) [2]: better toxic effect than NC5 | toxic effect compared with NC5 (growth inhibition) [3]: better toxic effect than NC5 | tumor growth [4]: inhibit tumor growth | median survival ([4]; vehicle 26 days): 28.5 days | solubility thermodynamic ([5]; aqueous buffer, phosphate buffer (PB) system, pH 7.4, read-out: Thermodynamic Solubility pH=7.4): < 0.48 µg/mL | solubility thermodynamic ([5]; water system, read-out: Thermodynamic Solubility Water): < 0.48 µg/mL

inhibition of the higher FRET caused by Ab1 (pCrkL) ([7]; CrkL + Ab1, Mg2+ and ATP): inhibited | FRET signal ([7]; CrkL about 0.4, CrkL+Ab1 about 0.6): 0.4
SMILES: Cc1ccc(NC(=O)c2ccc(CN3CCN(C)CC3)cc2)cc1Nc1nccc(-c2cccnc2)n1 [Gleevec, imatinib mesylate]
Alpha signal decrease [6]: 80-90% | IL2 secretion ([8]; PBMCs from three healthy donors, treated overnight): did not inhibit IL2 secretion | IL-2 production ([8]; first donor, compared to DMSO): decreased IL-2 production | damage to the liver and kidneys [9]: little to no damage to the liver and kidneys

SMILES: CC(C)=CCc1c2c(c3occ(-c4ccc5c(c4)OS(=O)(=O)O5)c(=O)c3c1OS(=O)(=O)F)C=CC(C)(C)O2 [Compound II]
toxicity compared with NC5 (MTT viability) ([10]; 5 μM): increased toxicity | killing effect compared with NC5 (MTT) ([10]; different concentrations): comparable killing effect as NC5 | killing effect / toxicity compared with NC5 (MTT) [11]: stronger killing effect than NC5; also recorded: increased toxicity | killing effect by propidium iodide staining [12]: killing effect was further confirmed
